Laboratory results as given in ChEMBL document CHEMBL4428075, “New antiproliferative 7-(4-(N-substituted carbamoylmethyl)piperazin-1-yl) derivatives of ciprofloxacin induce cell cycle arrest at G2/M phase” (Bioorg Med Chem, 2016).
Calls of active or inactive are those of the source. The rule behind the calls is not given here.

Tests used:
A549 [1] = assay: Induction of cell cycle arrest in human A549 cells assessed as accumulation at sub G1 phase at 10 uM after 24 hrs by FITC-labeled anti-BrdU antibody/7AAD staining based FACS calibur flow cytometric analysis (reference value: 0.82 %); assay type: functional
WI-38 = assay: Downregulation of cyclinB1 expression in human WI38 cells at 5 to 25 uM after 24 hrs by Western blot analysis; assay type: ADME, cell-based; details: wi-38, 24 h
A549 [2] = assay: Upregulation of p21 expression in human A549 cells after 24 hrs by Western blot analysis; assay type: functional, cell-based
A549 [3] = assay: Induction of cell cycle arrest in human A549 cells assessed as accumulation at G2/M phase at 5 uM after 24 hrs by FITC-labeled anti-BrdU antibody/7AAD staining based FACS calibur flow cytometric analysis (reference value: 12.61 %); assay type: functional
A549 [4] = assay: Induction of cell cycle arrest in human A549 cells assessed as accumulation at G1 phase at 15 uM after 24 hrs by FITC-labeled anti-BrdU antibody/7AAD staining based FACS calibur flow cytometric analysis (reference value: 65.9 %); assay type: functional
A549 [5] = assay: Induction of cell cycle arrest in human A549 cells assessed as accumulation at G2/M phase at 15 uM after 24 hrs by FITC-labeled anti-BrdU antibody/7AAD staining based FACS calibur flow cytometric analysis (reference value: 12.61 %); assay type: functional
A549 [6] = assay: Induction of cell cycle arrest in human A549 cells assessed as accumulation at G1 phase at 25 uM after 24 hrs by FITC-labeled anti-BrdU antibody/7AAD staining based FACS calibur flow cytometric analysis (reference value: 65.9 %); assay type: functional
A549 [7] = assay: Induction of cell cycle arrest in human A549 cells assessed as accumulation at S phase at 10 uM after 24 hrs by FITC-labeled anti-BrdU antibody/7AAD staining based FACS calibur flow cytometric analysis (reference value: 20.9 %); assay type: functional
A549 [8] = assay: Induction of cell cycle arrest in human A549 cells assessed as accumulation at G1 phase at 10 uM after 24 hrs by FITC-labeled anti-BrdU antibody/7AAD staining based FACS calibur flow cytometric analysis (reference value: 65.9 %); assay type: functional
A549 [9] = assay: Induction of cell cycle arrest in human A549 cells assessed as accumulation at sub G1 phase at 5 uM after 24 hrs by FITC-labeled anti-BrdU antibody/7AAD staining based FACS calibur flow cytometric analysis (reference value: 0.82 %); assay type: functional
A549 [10] = assay: Induction of cell cycle arrest in human A549 cells assessed as accumulation at G2/M phase at 10 uM after 24 hrs by FITC-labeled anti-BrdU antibody/7AAD staining based FACS calibur flow cytometric analysis (reference value: 12.61 %); assay type: functional
A549 [11] = assay: Induction of cell cycle arrest in human A549 cells assessed as accumulation at sub G1 phase at 15 uM after 24 hrs by FITC-labeled anti-BrdU antibody/7AAD staining based FACS calibur flow cytometric analysis (reference value: 0.82 %); assay type: functional
A549 [12] = assay: Induction of cell cycle arrest in human A549 cells assessed as accumulation at G2/M phase at 25 uM after 24 hrs by FITC-labeled anti-BrdU antibody/7AAD staining based FACS calibur flow cytometric analysis (reference value: 12.61 %); assay type: functional
A549 [13] = assay: Downregulation of cyclinB1 expression in human A549 cells after 24 hrs by Western blot analysis; assay type: functional, cell-based
A549 [14] = assay: Induction of p21 expression in human A549 cells at 25 uM after 24 hrs in presence of PFTalpha by Western blot analysis; assay type: functional, cell-based

Question: With `O=C(CN1CCN(c2cc3c(cc2F)c(=O)c(C(=O)O)cn3C2CC2)CC1)Nc1ccc(Cl)cc1` as the molecule, how does the Activity (A549 [1]) read?
Answer: 4.19%

Question: And the Activity (WI-38)?
Answer: Non-Toxic

Question: And the Activity (A549 [2])?
Answer: Dose-dependent effect

Question: And the Activity (A549 [3])?
Answer: 13.21%

Question: And the Activity (A549 [4])?
Answer: 46%

Question: What about the Activity (A549 [5]) of the same molecule?
Answer: 32.6%

Question: What about the Activity (A549 [6]) of the same molecule?
Answer: 24.8%

Question: What about the Activity (A549 [7]) of the same molecule?
Answer: 16.7%

Question: And the Activity (A549 [8])?
Answer: 58.5%

Question: What about the Activity (A549 [9]) of the same molecule?
Answer: 1.65%

Question: What about the Activity (A549 [10]) of the same molecule?
Answer: 22.6%

Question: And the Activity (A549 [11])?
Answer: 3.28%

Question: And the Activity (A549 [12])?
Answer: 64%

Question: What about the Activity (A549 [13]) of the same molecule?
Answer: Dose-dependent effect

Question: And the Activity (A549 [14])?
Answer: inactive
